A short description of data set [1]: Lipophilicity, log P by microemulsion electrokinetic chromatography. The class given is physicochemical.
The nature of data set [2]: Lipophilicity, log P of the compound. Type of data set: physicochemical. Conditions: octanol/water.
Data set [3] in a line: Fraction unbound in rat brain. Type of data set: ADME, tissue-based.
Data set [4] can be described thus: Dissociation constant, pKa by capillary electrophoresis. Type of data set: physicochemical.
Data set [5] is described as follows: Dissociation constant, pKa by mass spectrometry. Type of data set: physicochemical.
A short description of data set [6]: Lipophilicity, log D at pH 7.4 by liquid chromatography. Type of data set: physicochemical. To be noted: buffer.

A word on the logP: it is a log measure of how a compound divides between an organic and an aqueous phase. Consider `CNC(=C[N+](=O)[O-])NCCSCc1ccc(CN(C)C)o1` [RANITIDINE], for which the results for the logP in data set [1] (read-out: logP) and in data set [2] (read-out: logP) were 1.06 and 1.28, respectively.
For the molecule `CC(C)n1c(/C=C/C(O)CC(O)CC(=O)O)c(-c2ccc(F)cc2)c2ccccc21` (stereo not given) [FLUVASTATIN], the logP in data set [1] (read-out: logP) stood at 3.92.
In the case of `CN(C)CCC=C1c2ccccc2C=Cc2ccccc21` [CYCLOBENZAPRINE], the logP in data set [1] (read-out: logP) was found to be 4.81.
The term fraction unbound denotes the share of the substance not bound to proteins or other matrix. A word on the pKa: it is the pH at which an ionisable group is half protonated. Regarding `Cc1cc2c(s1)Nc1ccccc1N=C2N1CCN(C)CC1` [OLANZAPINE], the logP in data set [1] (read-out: logP) worked out at 3.21. The fraction unbound in data set [3] is 0.034. The pKa in data set [4] turned out to be 8.5; in data set [5] it was 4.66.
On to `C=CCc1ccccc1OCC(O)CNC(C)C` (stereo not given) [ALPRENOLOL], for which the values for the logP in data set [1] (read-out: logP) and in data set [2] (read-out: logP) were 3.57 and 2.99, respectively.
Turning to `CNCCCC12CCC(c3ccccc31)c1ccccc12` [MAPROTILINE], the logP in data set [1] (read-out: logP) was determined as 4.67. Besides, in data set [3], the fraction unbound was determined as 0.006. Also, in data set [4], the pKa was 10.6.
In general, logD refers to lipophilicity at a set pH, counting ionised and neutral species. Higher therefore signals a more lipophilic compound. Consider `Cc1ncc2n1-c1ccc(Cl)cc1C(c1ccccc1F)=NC2` [MIDAZOLAM], for which the logD in data set [6] stood at 3.38. Also, the logP in data set [1] (read-out: logP) is 3.65.
In the same order, the values of `COc1ccc(C(CN(C)C)C2(O)CCCCC2)cc1` (stereo not given) [VENLAFAXINE] are 1 and 3.2.
In the case of `CN1CCC[C@H]1c1cccnc1` [NICOTINE], the logP worked out at 1.22 in data set [1] (read-out: logP) and 1.39 in data set [2] (read-out: logP).
Take `O=C(c1ccccc1)c1ccc2n1CCC2C(=O)O` (stereo not given) [KETOROLAC]: the values for the logP in data set [1] and in data set [2] were 1.68 and 1.26, respectively.
On to `O=C(CCCN1CCC(O)(c2ccc(Cl)cc2)CC1)c1ccc(F)cc1` [HALOPERIDOL], for which the logP in data set [1] (read-out: logP) was 3.53; in data set [2] (read-out: logP), 3.67.
For `OCCOCCN1CCN(C(c2ccccc2)c2ccc(Cl)cc2)CC1` (stereo not given) [HYDROXYZINE], the logD in data set [6] was 3.6. Also, the logP in data set [1] is 4.
`O=c1n(CCCN2CCN(c3cccc(Cl)c3)CC2)nc2ccccn12` [TRAZODONE] returned a logD in data set [6] of 2.99. For the same molecule, the log partition coefficient (logP) in data set [1] (read-out: logP) is 2.92.
Turning to `OCCN1CCN(CCCN2c3ccccc3Sc3ccc(Cl)cc32)CC1` [PERPHENAZINE], in data set [6], the logD was found to be 4.1. Further, the logP in data set [1] (read-out: logP) was 3.83. Further, in data set [3], the fraction unbound amounted to 0.004. Moreover, the figures for the pKa in data set [4] and in data set [5] were 8.04 and 3.72, respectively.
Regarding `CNCCC=C1c2ccccc2CCc2ccccc21` [NORTRIPTYLINE], the logD in data set [6] was found to be 2.8. Besides, the logP in data set [1] (read-out: logP) stood at 4.36; in data set [2] (read-out: logP) it was 4.39.
`COC(=O)C(c1ccccc1)C1CCCCN1` (stereo not given) [METHYLPHENIDATE] gave a logD in data set [6] of 0.4. Further, the logP in data set [1] (read-out: logP) turned out to be 2.67.
With `C[C@]12CCC(=O)C=C1CC[C@@H]1[C@@H]2[C@@H](O)C[C@@]2(C)[C@H]1CC[C@]2(O)C(=O)CO` [HYDROCORTISONE], the logP in data set [1] (read-out: logP) came to 2.38; in data set [2] (read-out: logP) it was 1.65.
Regarding `Clc1ccc2c(c1)C(N1CCNCC1)=Nc1ccccc1O2` [AMOXAPINE], in data set [6], the logD amounted to 2.4. Also, in data set [1] (read-out: logP), the logP worked out at 3.71. The molecule further had a free fraction (fraction unbound) in data set [3] of 0.01. For the same molecule, the pKa in data set [4] came out at 8.71; in data set [5], 3.38.
In the case of `NC(=O)N1c2ccccc2C=Cc2ccccc21` [CARBAMAZEPINE], the logP in data set [1] (read-out: logP) stood at 2.29; in data set [2] (read-out: logP), 2.34.
Turning to `Fc1ccc([C@@H]2CCNC[C@H]2COc2ccc3c(c2)OCO3)cc1` [PAROXETINE], in data set [1] (read-out: logP), the logP turned out to be 4.07.
The same measure, in the same setting: to `CC(C)NCC(O)COc1cccc2[nH]ccc12` (stereo not given) [PINDOLOL] belongs 1.71.
Regarding `OCCOCCN1CCN(C2=Nc3ccccc3Sc3ccccc32)CC1` [QUETIAPINE], the logD in data set [6] stood at 3.4. The logP in data set [1] (read-out: logP) was found to be 3.54. This molecule also returned a fraction unbound in data set [3] of 0.025. The values for the pKa in data set [4] and in data set [5] were 6.91 and 3.64, respectively.
In the case of `CC(NC(C)(C)C)C(=O)c1cccc(Cl)c1` (stereo not given) [BUPROPION], the logP is 3.76 in data set [1] (read-out: logP) and 3.21 in data set [2] (read-out: logP).
In the case of `CCCC(C)(COC(N)=O)COC(=O)NC(C)C` (stereo not given) [CARISOPRODOL], the logP in data set [1] (read-out: logP) was 2.4.
`CSc1ccc2c(c1)N(CCC1CCCCN1C)c1ccccc1S2` (stereo not given) [THIORIDAZINE] came in with a logD in data set [6] of 4.4. This molecule also registered a logP in data set [1] of 4.75. The same molecule yielded a fraction unbound in data set [3] of 0.001.
In the case of `CN1CCN(C2=Nc3cc(Cl)ccc3Nc3ccccc32)CC1` [CLOZAPINE], in data set [6], the logD worked out at 3.48. Moreover, the logP amounted to 3.6 in data set [1] (read-out: logP) and 4.1 in data set [2] (read-out: logP).
Take `c1ccc(-c2ccc(C(c3ccccc3)n3ccnc3)cc2)cc1` (stereo not given) [BIFONAZOLE]: the logP in data set [1] (read-out: logP) was determined as 5.56.
For `CCN(CC)CCOC(=O)c1ccc(N)cc1` [PROCAINE], the lipophilicity (logP) in data set [1] (read-out: logP) was determined as 2.18; in data set [2] (read-out: logP), 2.2.
`CNS(=O)(=O)Cc1ccc2[nH]cc(CCN(C)C)c2c1` gave a logD in data set [6] below 0. Moreover, the logP in data set [1] (read-out: logP) came out at 1.41. Moreover, the fraction unbound in data set [3] stood at 0.724. For the same molecule, the pKa in data set [4] was 9.68.
On to `C[C@]12C[C@H](O)[C@H]3[C@@H](CCC4=CC(=O)CC[C@@]43C)[C@@H]1CC[C@@H]2C(=O)CO` [CORTICOSTERONE], for which the logP in data set [1] (read-out: logP) came out at 2.9; in data set [2] (read-out: logP) it was 2.2.
In data set [3], `CN1CCN(C2=Nc3ccccc3Oc3ccc(Cl)cc32)CC1` [LOXAPINE] came in with a fraction unbound of 0.011.
For `CCCN1C[C@H](CSC)C[C@@H]2c3cccc4[nH]cc(c34)C[C@H]21` [PERGOLIDE], the logD in data set [6] was 3. Further, the logP in data set [1] (read-out: logP) was determined as 4.22. The molecule also returned a fraction unbound in data set [3] of 0.027. This molecule also had a pKa in data set [4] of 8.78.
For the molecule `CN(C)CCC=C1c2ccccc2COc2ccccc21` [DOXEPIN], the logD in data set [6] is 2.3. Further, the logP in data set [1] (read-out: logP) is 4.07; in data set [2] (read-out: logP) it was 4.29. This molecule yielded a free fraction (fraction unbound) in data set [3] of 0.025. The molecule further showed a pKa in data set [4] of 9.37.
With `Cc1ccc(-c2nc3ccc(C)cn3c2CC(=O)N(C)C)cc1` [ZOLPIDEM], the logD in data set [6] is 2.3. In addition, the logP in data set [1] (read-out: logP) was 2.2.
In the case of `CN1CCOC(c2ccccc2)c2ccccc2C1` (stereo not given) [NEFOPAM], the logP in data set [1] (read-out: logP) was 3.2; in data set [2] (read-out: logP), 3.02.
`NC12CC3CC(CC(C3)C1)C2` [AMANTADINE] displayed a logD in data set [6] below 0. Besides, the logP in data set [1] (read-out: logP) is 2.82. In data set [3], this molecule had a fraction unbound of 0.233.
Take `COc1ccc(Cc2nccc3cc(OC)c(OC)cc23)cc1OC` [PAPAVERINE]: the logP in data set [1] (read-out: logP) was 2.73.
In data set [6], `CN1CCCCC1CCN1c2ccccc2Sc2ccc([S+](C)[O-])cc21` (stereo not given) [MESORIDAZINE] showed a logD of 1.7. For the same molecule, in data set [1] (read-out: logP), the logP is 4.26. The molecule further yielded a fraction unbound in data set [3] of 0.016. Also, in data set [4], the pKa came to 9.61.
Take `CCOC(=O)c1ccc(N)cc1` [BENZOCAINE]: the logP in data set [1] (read-out: logP) was 1.79; in data set [2] (read-out: logP) it was 1.89.
As for `CN(C)CCCN1c2ccccc2Sc2ccc(Cl)cc21` [CHLORPROMAZINE], the logP in data set [2] (read-out: logP) was determined as 4.74.
For the molecule `CCN(CC)CCNC(=O)c1cc(Cl)c(N)cc1OC` [METOCLOPRAMIDE], in data set [3], the fraction unbound is 0.365.
On to `COCCc1ccc(OCC(O)CNC(C)C)cc1` (stereo not given) [METOPROLOL], for which the logP in data set [1] (read-out: logP) is 2.08.
`CCCCNc1ccc(C(=O)OCCN(C)C)cc1` [TETRACAINE]: the logP in data set [2] (read-out: logP) came out at 3.46.
On to `CCOC(=O)c1ncn2c1CN(C)C(=O)c1cc(F)ccc1-2` [FLUMAZENIL], for which the logP was found to be 0.92 in data set [1] (read-out: logP) and 1.64 in data set [2] (read-out: logP).
Take `Nc1nnc(-c2cccc(Cl)c2Cl)c(N)n1` [LAMOTRIGINE]: the logD in data set [6] was below 0. Also, the logP in data set [1] (read-out: logP) was determined as 1.6.
`COC(=O)Nc1nc2ccc(C(=O)c3ccccc3)cc2[nH]1` [MEBENDAZOLE]: the logP in data set [1] (read-out: logP) was found to be 2.26; in data set [2] (read-out: logP), 2.42.
Regarding `Nc1c2c(nc3ccccc13)CCCC2` [TACRINE], in data set [3], the fraction unbound was determined as 0.124.
In the case of `COc1ccc(CN(CCN(C)C)c2ccccn2)cc1` [PYRILAMINE], the logP in data set [2] (read-out: logP) was found to be 3.12.
For `CN1C(C(=O)Nc2ccccn2)=C(O)c2ccccc2S1(=O)=O` [PIROXICAM], the values for the logP in data set [1] (read-out: logP) and in data set [2] (read-out: logP) were 1.45 and 1.68, respectively.
Take `Cc1nc2n(c(=O)c1CCN1CCC(c3noc4cc(F)ccc34)CC1)CCCC2` [RISPERIDONE]: the logD in data set [6] was 1.71. Further, the logP in data set [1] (read-out: logP) came out at 2.86.
As for `CN1CCN2c3ncccc3Cc3ccccc3C2C1` (stereo not given) [MIRTAZAPINE], the pH-dependent lipophilicity (logD) in data set [6] turned out to be 2.3. Moreover, the logP in data set [1] (read-out: logP) was determined as 3.48. In data set [3], the fraction unbound came out at 0.08. For the same molecule, the pKa turned out to be 7.79 in data set [4] and 3.59 in data set [5].
As to `Clc1cccc(Cl)c1N=C1NCCN1` [CLONIDINE], the logP amounted to 1.08 in data set [1] (read-out: logP) and 1.57 in data set [2] (read-out: logP).
For the molecule `COc1cc(NC(C)CCCN)c2ncccc2c1` (stereo not given) [PRIMAQUINE], the logP in data set [1] is 3.8; in data set [2] (read-out: logP), 3.

Source of the values: ChEMBL document CHEMBL1152804, “Relationship between brain tissue partitioning and microemulsion retention factors of CNS drugs” (J Med Chem, 2009).
